Measured values taken from US20250144077A1, “DOSAGE REGIMEN FOR THROMBOPOIETIN RECEPTOR AGONIST” (JIANGSU HENGRUI PHARMACEUTICALS CO., LTD., priority 2022, published 2025).
Like-named read-outs stand apart in the source and are kept apart here.

Experiments:
platelet counts = experiment: PD: platelet counts after administration compared to baseline; assay type: in vivo, human; conditions: all the groups; single 7.5 mg oral dose
Procedure: (§1) All the subjects in each group underwent PK, PD, and safety index collection following the administration of the study drug on D1 according to the trial process chart, and comparative analysis was then performed between groups.

[1] = Safety and adverse events after single 7.5 mg oral dose (CTCAE5.0 grading); assay type: in vivo, human
Procedure: as §1
(§2) Prior to the day-1 administration (D-1), the subjects were required to fast for 10 h or more, though water intake was not prohibited. The following morning (D1), the subjects orally took, on an empty stomach, a 7.5 mg dose of herombopag diethanolamine tablets (comprised of one 2.5 mg tablet and one 5 mg tablet) with about 240 mL of warm water. Water intake was prohibited 1 h before and after the administration. The subjects had lunch about 4 h after the administration and had dinner about 10 h after the administration. The subjects were advised to remain seated within the 2 h after the administration and to avoid strenuous exercise and prolonged bed rest.
In this study, a total of 24 subjects were included, and all of them were included in a safety analysis set.
In this study, all drug-related AEs were graded according to CTCAE5.0. […] The adverse reactions mainly occurred in the hepatic impairment groups, and the incidence of adverse reactions in the moderate hepatic impairment group was relatively high, which may be attributed to the fact that these subjects had pre-existing liver diseases of varying degrees of severity and most of them already had abnormal baseline laboratory test results. These subjects recovered from all the adverse events without intervention.

plasma protein = experiment: Plasma protein binding rate of herombopag in subjects with hepatic impairments; assay type: in vitro ADME, human
[2] = Single-dose, open-label pharmacokinetics of herombopag in subjects with normal liver function, mild and moderate hepatic impairments; assay type: in vivo, human; conditions: for AUC0-t GLSM Ratio / AUC0-∞ GLSM Ratio / Cmax GLSM Ratio: ANOVA
Procedure: Example 1: Study of Pharmacokinetics and Safety of Trial Drug in Subjects with Mild Hepatic Impairments (Child-Pugh: Grade A), Moderate Hepatic Impairments (Child-Pugh: Grade B), and Normal Liver Function
Trial drug: tablets of herombopag diethanolamine salt, produced and provided by Jiangsu Hengrui, strengths: 2.5 mg/tablet and 5 mg/tablet.
This study is a single-dose, open-label trial designed to evaluate the pharmacokinetics of herombopag in subjects with normal liver function, mild hepatic impairments, and moderate hepatic impairments.
The severity of the hepatic functional impairments in the subjects was assessed using the Child-Pugh score (mild: grade A, a score of 5 or 6; moderate: grade B, a score of 7-9).
as §1
PK blood sampling time points: Venous blood samples of about 4 mL were collected from each subject within the 1 h prior to administration and at 0.5, 1, 2, 4, 6, 7, 8, 10, 12, 24, 48, 72, 96, and 120 h after administration. Blood sampling time windows: within the 60 min prior to administration; ±2 min for the 0.5 h-2 h after administration; ±5 min for the 4 h-12 h; ±15 min for the 24 h-120 h after administration.
as §2
Pharmacokinetic parameters of herombopag, including Tmax, Cmax, AUC0-t, AUC0-∞, t1/2, V/F, and CL/F, were calculated according to the actual sampling time points using a non-compartmental model (NCA) on Phoenix WinNonlin 8.1.

[3] = moderate hepatic impairment group, 5 subjects
[4] = Moderate vs. Normal (moderate/normal)
[5] = mild hepatic impairments compared with normal liver function
[6] = moderate hepatic impairments compared with normal liver function
[7] = single 7.5 mg oral dose, fasted, mild hepatic impairment (n = 8), GeoMean (% CVb)
[8] = single 7.5 mg oral dose, fasted, moderate hepatic impairment (n = 8), GeoMean (% CVb)
[9] = single 7.5 mg oral dose, fasted, normal liver function group (n = 8), GeoMean (% CVb)

**Q.** Which results are given for CC1=NN(c2ccc3c(c2)CCCC3)C(=O)/C1=N\Nc1cccc(-c2ccc(C(=O)O)o2)c1O [herombopag, (Z)-5-(2-hydroxy-3-(2-(3-methyl-5-oxo-1-(5,6,7,8-tetrahydronaphthalen-2-yl)-1H-pyrazol-4(5H)-ylidene)hydrazino)phenyl)furan-2-carboxylic acid]?
**A.** platelet counts after administration compared to the baseline (platelet counts): trend towards higher platelet counts compared to the baseline; incidence of AEs related to the study drug ([1]; all 24 subjects, 13 subjects, 25 events): 54.2%; incidence of adverse events ([1]; all 24 subjects, 15 subjects, 29 events): 62.5%; subjects with grade 1 drug-related AEs (CTCAE5.0) ([1]; all subjects, nine subjects): 37.5%; subjects with grade 2 drug-related AEs (CTCAE5.0) ([1]; all subjects, seven subjects): 29.2%; subjects with grade 2 drug-related AEs (CTCAE5.0) ([1]; mild hepatic impairment group, 1 subject, decreased neutrophil count): 12.5%; subjects with grade 1 drug-related AEs (CTCAE5.0) ([1]; mild hepatic impairment group, 3 subjects): 37.5%; incidence of AEs related to the study drug ([1]; mild hepatic impairment group, 4 subjects, 5 events): 50.0%; subjects with grade 3 drug-related AEs (CTCAE5.0) ([1]; moderate hepatic impairment group, 1 subject): 12.5%; subjects with grade 1 drug-related AEs (CTCAE5.0) [1, 3]: 62.5%; subjects with grade 2 drug-related AEs (CTCAE5.0) [1, 3]: 62.5%; incidence of AEs related to the study drug ([1]; moderate hepatic impairment group, 7 subjects, 18 events): 87.5%; subjects with grade 1 drug-related AEs (CTCAE5.0) ([1]; normal liver function group, 1 subject): 25.0%; subjects with grade 2 drug-related AEs (CTCAE5.0) ([1]; normal liver function group, 1 subject, hypertriglyceridemia): 12.5%; incidence of AEs related to the study drug ([1]; normal liver function group, 2 subjects, 2 events): 25.0%; safety and tolerability ([1]; single oral dose, normal liver function, mild and moderate hepatic impairments): safe and well tolerated; effect of hepatic impairments on plasma protein binding rate (plasma protein): did not significantly affect; AUC0-t GLSM Ratio ([2]; Mild vs. Normal (mild/normal)): 121.73%; AUC0-∞ GLSM Ratio ([2]; Mild vs. Normal (mild/normal)): 120.16%; Cmax GLSM Ratio ([2]; Mild vs. Normal (mild/normal)): 170.39%; AUC0-t GLSM Ratio [2, 4]: 171.21%; AUC0-∞ GLSM Ratio [2, 4]: 173.06%; Cmax GLSM Ratio [2, 4]: 204.72%; median time to peak, hepatic impairment groups versus normal liver function group ([2]; human, in vivo): smaller median time to peak; AUC(0-t) ([2]; human, plasma, oral, 7.5 mg, geometric least squares mean, mild hepatic impairment group, n 8, read-out: AUC0-t GLSM): 1060 ng·h/mL; AUC(0-inf) ([2]; human, plasma, oral, 7.5 mg, geometric least squares mean, mild hepatic impairment group, n 8, read-out: AUC0-∞ GLSM): 1120 ng·h/mL; Cmax ([2]; human, plasma, oral, 7.5 mg, geometric least squares mean, mild hepatic impairment group, n 8, read-out: Cmax GLSM): 62.6 ng/mL; AUC(0-t) ([2]; human, plasma, oral, 7.5 mg, geometric least squares mean, moderate hepatic impairment group, n 8, read-out: AUC0-t GLSM): 1500 ng·h/mL; AUC(0-inf) ([2]; human, plasma, oral, 7.5 mg, geometric least squares mean, moderate hepatic impairment group, n 8, read-out: AUC0-∞ GLSM): 1610 ng·h/mL; Cmax ([2]; human, plasma, oral, 7.5 mg, geometric least squares mean, moderate hepatic impairment group, n 8, read-out: Cmax GLSM): 75.3 ng/mL; AUC(0-t) ([2]; human, plasma, oral, 7.5 mg, geometric least squares mean, normal liver function group, n 8, read-out: AUC0-t GLSM): 874 ng·h/mL; AUC(0-inf) ([2]; human, plasma, oral, 7.5 mg, geometric least squares mean, normal liver function group, n 8, read-out: AUC0-∞ GLSM): 929 ng·h/mL; Cmax ([2]; human, plasma, oral, 7.5 mg, geometric least squares mean, normal liver function group, n 8, read-out: Cmax GLSM): 36.8 ng/mL; half-life ([2]; human, plasma, po, 7.5 mg, single 7.5 mg oral dose, empty stomach, mild hepatic impairments (Child-Pugh: grade A), read-out: arithmetic mean of t1/2 (converted)): 32.3 h; AUC(0-t) ([2]; human, plasma, po, 7.5 mg, single 7.5 mg oral dose, empty stomach, mild hepatic impairments (Child-Pugh: grade A), read-out: geometric mean of AUC0-t): 1060 ng·h/mL; AUC(0-inf) ([2]; human, plasma, po, 7.5 mg, single 7.5 mg oral dose, empty stomach, mild hepatic impairments (Child-Pugh: grade A), read-out: geometric mean of AUC0-∞): 1120 ng·h/mL; Tmax ([2]; human, plasma, po, 7.5 mg, single 7.5 mg oral dose, empty stomach, mild hepatic impairments (Child-Pugh: grade A), read-out: median of Tmax): 2 h; half-life ([2]; human, plasma, po, 7.5 mg, single 7.5 mg oral dose, empty stomach, moderate hepatic impairments (Child-Pugh: grade B), read-out: arithmetic mean of t1/2 (converted)): 36.3 h; AUC(0-t) ([2]; human, plasma, po, 7.5 mg, single 7.5 mg oral dose, empty stomach, moderate hepatic impairments (Child-Pugh: grade B), read-out: geometric mean of AUC0-t): 1580 ng·h/mL; AUC(0-inf) ([2]; human, plasma, po, 7.5 mg, single 7.5 mg oral dose, empty stomach, moderate hepatic impairments (Child-Pugh: grade B), read-out: geometric mean of AUC0-∞): 1660 ng·h/mL; Tmax ([2]; human, plasma, po, 7.5 mg, single 7.5 mg oral dose, empty stomach, moderate hepatic impairments (Child-Pugh: grade B), read-out: median of Tmax): 2 h; half-life ([2]; human, plasma, po, 7.5 mg, single 7.5 mg oral dose, empty stomach, normal liver function, read-out: arithmetic mean of t1/2 (converted)): 34.6 h; AUC(0-t) ([2]; human, plasma, po, 7.5 mg, single 7.5 mg oral dose, empty stomach, normal liver function, read-out: geometric mean of AUC0-t): 874 ng·h/mL; AUC(0-inf) ([2]; human, plasma, po, 7.5 mg, single 7.5 mg oral dose, empty stomach, normal liver function, read-out: geometric mean of AUC0-∞): 929 ng·h/mL; Tmax ([2]; human, plasma, po, 7.5 mg, single 7.5 mg oral dose, empty stomach, normal liver function, read-out: median of Tmax): 8 h; AUC(0-t) ([2]; human, plasma, po, 7.5 mg, single 7.5 mg oral dose, fasted, mild hepatic impairment (n = 8), GeoMean (% CVb), read-out: AUC0-t): 1060 ng·h/mL; AUC(0-inf) ([2]; human, plasma, po, 7.5 mg, single 7.5 mg oral dose, fasted, mild hepatic impairment (n = 8), GeoMean (% CVb), read-out: AUC0-∞): 1120 ng·h/mL; Cmax ([2]; human, plasma, po, 7.5 mg, single 7.5 mg oral dose, fasted, mild hepatic impairment (n = 8), GeoMean (% CVb), read-out: Cmax): 62.4 ng/mL; half-life ([2]; human, plasma, po, 7.5 mg, single 7.5 mg oral dose, fasted, mild hepatic impairment (n = 8), Mean ± SD, read-out: t1/2 (converted)): 32.2 ± 7.28 h; Tmax ([2]; human, plasma, po, 7.5 mg, single 7.5 mg oral dose, fasted, mild hepatic impairment (n = 8), Median (Min-Max), read-out: Tmax): 2 h; AUC(0-t) ([2]; human, plasma, po, 7.5 mg, single 7.5 mg oral dose, fasted, moderate hepatic impairment (n = 8), GeoMean (% CVb), read-out: AUC0-t): 1580 ng·h/mL; AUC(0-inf) ([2]; human, plasma, po, 7.5 mg, single 7.5 mg oral dose, fasted, moderate hepatic impairment (n = 8), GeoMean (% CVb), read-out: AUC0-∞): 1660 ng·h/mL; Cmax ([2]; human, plasma, po, 7.5 mg, single 7.5 mg oral dose, fasted, moderate hepatic impairment (n = 8), GeoMean (% CVb), read-out: Cmax): 82.8 ng/mL; half-life ([2]; human, plasma, po, 7.5 mg, single 7.5 mg oral dose, fasted, moderate hepatic impairment (n = 8), Mean ± SD, read-out: t1/2 (converted)): 36.3 ± 11.9 h; Tmax ([2]; human, plasma, po, 7.5 mg, single 7.5 mg oral dose, fasted, moderate hepatic impairment (n = 8), Median (Min-Max), read-out: Tmax): 2 h; AUC(0-t) ([2]; human, plasma, po, 7.5 mg, single 7.5 mg oral dose, fasted, normal liver function group (n = 8), GeoMean (% CVb), read-out: AUC0-t): 874 ng·h/mL; AUC(0-inf) ([2]; human, plasma, po, 7.5 mg, single 7.5 mg oral dose, fasted, normal liver function group (n = 8), GeoMean (% CVb), read-out: AUC0-∞): 929 ng·h/mL; Cmax ([2]; human, plasma, po, 7.5 mg, single 7.5 mg oral dose, fasted, normal liver function group (n = 8), GeoMean (% CVb), read-out: Cmax): 36.8 ng/mL; half-life ([2]; human, plasma, po, 7.5 mg, single 7.5 mg oral dose, fasted, normal liver function group (n = 8), Mean ± SD, read-out: t1/2 (converted)): 34.6 ± 11.9 h; Tmax ([2]; human, plasma, po, 7.5 mg, single 7.5 mg oral dose, fasted, normal liver function group (n = 8), Median (Min-Max), read-out: Tmax): 8 h; AUC0-t increase [2, 5]: 21.73%; AUC0-∞ increase [2, 5]: 20.16%; Cmax increase [2, 5]: 70.39%; AUC0-t increase [2, 6]: 71.21%; AUC0-∞ increase [2, 6]: 73.06%; Cmax increase [2, 6]: 104.72%; half-lives compared between groups ([2]; normal, mild and moderate hepatic impairment groups): substantially identical half-lives; CL/F [2, 7]: 6.72(41.5) L/h; Cmax [2, 7]: 62.6(42.2) ng/mL; V/F [2, 7]: 304(45.6) L; CL/F [2, 8]: 4.66(58.8) L/h; V/F [2, 8]: 233(69.7) L; CL/F [2, 9]: 8.07(101.6) L/h; V/F [2, 9]: 372(60.3) L
